The test system of one experiment is CLL cells. The experiment in a line: ELISA binding of phage displaying peptides to fixed cells: CLL cells. The arrangement: species or system human. The note with it: in words. The protocol: (§1) Preliminary experiments were performed to identify specific peptides by using cells from patients diagnosed with CLL, CML, and AML. The screening was performed by incubating the cells with the phage-peptides from the library. This incubation allows interaction between the peptide and the cell. The binding step was followed by several washes to eliminate free phage. Phage bound on the cell surface was eluted.
(§2) After the last round of binding with one cell type, the eluted phage was plated on an agar plate with the appropriate selection antibiotics. Each individual colony, corresponding to one individual peptide sequence, was amplified in a 96-well plate. After purification, these peptides were tested for their ability to bind to the cells in a microtiter plate by ELISA.
(§3) Each peptide was dispensed in a 96-well plate, containing cells previously fixed. Each colony was tested in a triplicate assay with the appropriate controls. After incubation of cells with an individual clone, the wells were washed to eliminate free phage. The bound phages were detected by using a monoclonal anti-M13 antibody/horseradish peroxidase (HRP) conjugate. After addition of the HRP substrate, the intensity of the coloration was measured by spectrophotometry. The light absorbance values (optical density values, O.D. values) are proportional to the number of phage bound to the cells.
(§4) The binding to various cell types were examined to evaluate the cellular specificity of the phage clones. For example, the clones from phage eluted from CLL patient cells were assayed for their ability to bind cells from an AML patient. Cells from normal donors (non-leukemic) were also evaluated to ascertain leukemia cell specificity.
(§5) Peripheral blood and bone marrow samples were collected from patients after informed consent. The samples were collected in tubes containing sodium citrate. Mononuclear cells were isolated by Ficoll-Hypaque density gradient separation and collection of the cells at a density of 1.077 g/mL.
(§6) The wells of a 96-well plate were pre-treated with 100 μL of poly-L-lysine (0.01 mg/mL in phosphate-buffered saline, 120 mM NaCl, 2.7 mM KCl, 10 mM phosphate buffer, “PBS”) for 2-16 hours at room temperature. After draining the poly-L-lysine from the wells, the excess poly-L-lysine was removed from the wells by flicking. The cells were washed with PBS, then suspended in PBS and diluted to a final concentration of […]. The cell suspension (200 μL; 250,000 cells) were added to each well needed for the assay.
(§7) The plates were centrifuged at 500 g for about 5 minutes in a microplate carrying centrifuge when available. The cells were fixed to the wells through the addition of glutaraldehyde (100 μL of 0.5%) and incubating at room temperature for about an hour. The glutaraldehyde was removed and the cell-coated wells washed once with PBS. Alternatively, the cells were permitted to settle to the well bottoms for about 4 hours at 37° C., and the glutaraldehyde fixative was added after removing the PBS.
(§8) A glycine solution (200 μl of 0.1 M glycine in PBS) containing bovine serum albumin (BSA; 1%) was added to the wells and permitted to incubate for 30 minutes to block excess glutaraldehyde. The glycine was removed, and the cell-coated wells washed once with PBS. A sodium pyrophosphate solution (200 μL of 0.3 mg/mL NaPPi) was added to the wells and incubated for an hour at room temperature to neutralize lysine charges. The pyrophosphate solution was removed and the wells washed once with PBS. Multiwell microtiter plates with cell-coated wells were stored at 4° C. with fresh PBS solution in the coated wells.
(§9) The cells to be studied for binding were suspended in PBS and adsorbed onto to a poly-L-lysine pretreated 96-well plate and kept at 4° C. The PBS was removed from the wells and an H2O2 solution in PBS (6% H2O2 in 200 μL/well) was added. […]
(ELISA stands for enzyme-linked immunosorbent assay.)

In a further experiment the test system is CML cells. As to the kind of experiment: ELISA binding of phage displaying peptides to fixed cells: CML cells. The arrangement: species or system human. The note with it: in words. How it is done: as §1, §2, §3, §4, §5, §6, §7, §8, §9
The test system of the next experiment is CD34+ cells. The experiment in a line: ELISA binding of phage displaying peptides to fixed cells: CD34+ cells. On the set-up: species or system human. The note with it: in words. The protocol:
as §1, §2
(§10) Each peptide was dispensed in a 96-well plate, containing cells previously fixed. […] The bound phages were detected by using a monoclonal anti-M13 antibody/horseradish peroxidase (HRP) conjugate. After addition of the HRP substrate, the intensity of the coloration was measured by spectrophotometry. The light absorbance values (optical density values, O.D. values) are proportional to the number of phage bound to the cells.
(§11) The binding to various cell types were examined to evaluate the cellular specificity of the phage clones. […] Cells from normal donors (non-leukemic) were also evaluated to ascertain leukemia cell specificity. […]

The next experiment relates to AML cells. As to the kind of experiment: ELISA binding of phage displaying peptides to fixed cells: AML cells. The arrangement: species or system human. The note with it: in words. How it is done:
as §1, §2, §3, §4, §5, §6, §7, §8, §9

The subject of the next experiment is AML bone marrow cells. As to the kind of experiment: Methylcellulose culture of AML bone marrow cells with peptides: proliferation (colonies) and differentiation (morphology). It is filed as cell-based, human. The note with it: patient numbers. How it is done:
The effect of various peptides were analyzed for their biological activity on cells from a patient with acute myelogenous leukemia. The AML cells were cultured into a semi-solid medium of methylcellulose in order to determine the cloning efficiency and the differentiation of the cells. The various peptides were introduced into the semi-solid cell culture at a concentration of 10^−4 M (0.1 mM) peptide. After 14 days continuous incubation of the cell cultures, the morphology of the cells were analyzed. The data are shown in FIG. 7 for the cultures and show the percentage of immature cells in the culture (solid black), the percentage of small myeloblasts (solid white), the percentage of young cells (dark gray), and the relative percentage of monocytes to […] (light gray). The data regarding the biological response of AML bone marrow cells in the presence of the various peptides is shown in the table below.

In the next experiment the test system is cord blood cells. The experiment in a line: ELISA binding of phage displaying peptides to fixed cells: cord blood cells. The arrangement: species or system human. The note with it: in words. How it is done: as §1, §2, §10, §11
The next experiment concerns normal bone marrow cells. The experiment in a line: ELISA binding of phage displaying peptides to fixed cells: normal bone marrow. The note with it: in words. The arrangement: species or system human. How it is done:
as §1, §2, §10, §11

CIEETARKGC [A2 11-24]: in the experiment with CLL cells, the “binding of phage displaying the peptide to CLL cells” value is reported as “not”. Further, the “binding of phage displaying the peptide to CML cells” value in the experiment on CML cells is “bind”. Also, in the experiment with CD34+ cells, the “binding of phage displaying the peptide to CD34+ cells” value is “bind”. In addition, in the experiment with AML cells, the “binding of phage displaying the peptide to AML cells” value (“binding … to AML cells” below) is “bind”. Besides, the “Activation of Differentiation” value with AML bone marrow cells is given as 3.
For the sequence VSEDIYDA [E11 12-8B], the “binding of phage displaying the peptide to CML cells” value in the experiment on CML cells was “bind”. Moreover, the “binding … to AML cells” value in the experiment with AML cells is on record as “bind”. The “binding of phage displaying the peptide to cord blood cells” value in the experiment with cord blood cells is “bind”.
For the sequence KRGIHPES [B3 9-1-01 no Cys], in the experiment with normal bone marrow cells, the “binding of phage displaying the peptide to normal bone marrow” value is reported as “bind”. Besides, the “binding … to AML cells” value in the experiment with AML cells is listed as “not”.
